# Data from the supplement of paper PMC10307832.
# Assays:
# Assay in all cases: relative viability (nuclei count vs DMSO), 5 days (fraction); higher = more cells survive
# FH535 = compound: CC1=C(C=CC(=C1)[N+](=O)[O-])NS(=O)(=O)C2=C(C=CC(=C2)Cl)Cl [FH535]
# Method in brief: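 Viability was read as treated-well nuclei divided by vehicle-well nuclei, using the median across plates. Lung cancer cell lines in 1536-well plates were kept overnight at 37 °C, pinned with five √10-spaced library-drug doses, and after 5 days were Hoechst-stained, imaged at 4× and counted in MetaXpress. Plates passed only with control CV below 25% and at least one doubling.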
# FH535 + Crizotinib = compound: CC1=C(C=CC(=C1)[N+](=O)[O-])NS(=O)(=O)C2=C(C=CC(=C2)Cl)Cl [FH535] + C[C@@H](Oc1cc(-c2cnn(C3CCNCC3)c2)cnc1N)c1c(Cl)ccc(F)c1Cl [Crizotinib] (partner 1 µM)
# Method in brief: (§1)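 Medians of duplicate plates are given as relative viability. That measure is the nuclei count in treated wells divided by the count in vehicle wells. Counts were taken on 4× images of lung cancer cell lines in 1536-well plates, 5 days after pin-tool dosing the day after seeding with one drug alone or a fixed anchor-drug dose plus five library-drug doses (not always all listed) in √10 steps.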
# FH535 + Linsitinib = compound: CC1=C(C=CC(=C1)[N+](=O)[O-])NS(=O)(=O)C2=C(C=CC(=C2)Cl)Cl [FH535] + C[C@]1(O)C[C@@H](c2nc(-c3ccc4ccc(-c5ccccc5)nc4c3)c3c(N)nccn32)C1 [Linsitinib] (partner 1 µM)
# Method in brief: as §1
# FH535 + Vorinostat = compound: CC1=C(C=CC(=C1)[N+](=O)[O-])NS(=O)(=O)C2=C(C=CC(=C2)Cl)Cl [FH535] + O=C(CCCCCCC(=O)Nc1ccccc1)NO [Vorinostat] (partner 1 µM)
# Method in brief: as §1
# FH535 + Luminespib = compound: CC1=C(C=CC(=C1)[N+](=O)[O-])NS(=O)(=O)C2=C(C=CC(=C2)Cl)Cl [FH535] + CCNC(=O)c1noc(-c2cc(C(C)C)c(O)cc2O)c1-c1ccc(CN2CCOCC2)cc1 [Luminespib] (partner 0.01 µM)
# Method in brief: as §1
Cell Line,relative viability (FH535; 0.04 µM),relative viability (FH535; 0.1265 µM),relative viability (FH535; 0.4 µM),relative viability (FH535; 1.265 µM),relative viability (FH535 + Crizotinib; first compound 0.04 µM),relative viability (FH535 + Crizotinib; first compound 0.1265 µM),relative viability (FH535 + Crizotinib; first compound 0.4 µM),relative viability (FH535 + Crizotinib; first compound 1.265 µM),relative viability (FH535 + Linsitinib; first compound 0.04 µM),relative viability (FH535 + Linsitinib; first compound 0.1265 µM),relative viability (FH535 + Linsitinib; first compound 0.4 µM),relative viability (FH535 + Linsitinib; first compound 1.265 µM),relative viability (FH535 + Vorinostat; first compound 0.04 µM),relative viability (FH535 + Vorinostat; first compound 0.1265 µM),relative viability (FH535 + Vorinostat; first compound 0.4 µM),relative viability (FH535 + Vorinostat; first compound 1.265 µM),relative viability (FH535 + Luminespib; first compound 0.04 µM),relative viability (FH535 + Luminespib; first compound 0.1265 µM),relative viability (FH535 + Luminespib; first compound 0.4 µM),relative viability (FH535 + Luminespib; first compound 1.265 µM)
HCC-78,0.927,1,0.951,0.865,0.3,0.373,0.342,0.311,0.456,0.557,0.558,0.527,0.408,0.429,0.479,0.414,–,–,–,–
HCC-366,1,1.05,0.973,0.992,0.392,0.614,0.594,0.354,0.578,0.852,0.514,0.465,0.131,0.416,0.34,0.261,–,–,–,–
HCC-827,0.956,1.04,0.936,0.767,0.924,0.872,0.904,0.564,0.89,0.937,0.863,0.714,0.701,0.846,0.869,0.664,0.676,0.794,0.682,0.336
HOP-62,0.89,0.919,0.93,0.853,0.953,1.01,0.69,0.988,1.01,1.09,1.07,0.713,0.5,0.681,0.557,0.563,0.695,0.98,0.831,0.707
IA-LM,0.963,0.864,0.868,0.713,0.867,0.771,0.645,0.633,0.624,0.525,0.687,0.45,0.999,1.14,0.954,0.914,–,–,–,–
LC-2-ad,0.894,0.936,0.857,0.71,0.462,0.477,0.458,0.452,0.846,0.829,0.771,0.502,0.603,0.714,0.677,0.521,0.967,1.16,1.03,0.755
LCLC-97TM1,0.809,0.913,0.844,0.913,–,0.583,0.322,0.296,–,0.202,0.204,0.185,0.203,0.568,0.706,0.745,0.736,0.763,0.742,0.436
LCLC-103H,0.919,1.03,0.901,0.753,1.04,1.11,1.02,0.844,1.06,1.09,1.21,0.868,0.569,0.781,0.694,0.666,0.936,1.02,0.862,0.616
LK-2,0.919,0.983,0.996,1.17,0.224,0.236,0.252,0.226,0.477,0.487,0.673,0.561,0.166,0.301,0.29,0.485,0.201,0.165,0.168,0.173
NCI-H522,0.875,0.894,0.856,0.825,–,–,–,–,–,–,–,–,0.855,0.858,0.731,0.78,1.29,1.17,1.16,0.996
NCI-H1395,0.683,0.929,0.909,0.62,–,–,–,–,0.877,1.41,1.07,0.862,0.543,0.679,0.697,0.532,0.738,0.576,0.784,0.581
NCI-H1563,0.954,0.892,0.995,0.771,0.871,0.948,0.88,0.757,1.2,1.07,1.25,1.04,–,–,–,–,0.491,0.556,0.615,0.52
NCI-H1650,0.893,0.966,0.881,0.717,1.01,1.09,1.15,0.839,–,–,–,–,0.492,0.564,0.509,0.441,0.175,0.218,0.201,0.189
NCI-H1703,0.958,0.848,0.929,0.768,0.922,0.63,0.589,0.408,1.02,0.635,0.561,0.564,–,–,–,–,–,–,–,–
NCI-H1792,0.874,0.958,0.789,0.62,0.967,0.963,0.907,0.632,0.54,0.601,0.527,0.396,–,–,–,–,0.441,0.433,0.436,0.263
NCI-H1793,0.825,0.747,0.762,0.642,–,–,–,–,0.785,0.917,0.867,0.778,0.505,0.519,0.63,0.568,0.168,0.229,0.19,0.143
NCI-H2170,0.904,1.02,0.963,0.858,1.14,1.3,1.19,1.04,–,–,–,–,0.713,0.816,0.768,0.69,0.726,0.606,0.661,0.426
SW 900,0.962,0.754,0.789,0.743,–,–,–,–,–,–,–,–,0.483,0.257,0.378,0.358,0.186,0.163,0.161,0.178
